Article PMC10969810, “Green Extraction Strategy Using Bio-Based Aqueous Biphasic Systems for Polyphenol Valorization from Grape By-Product” (Foods, 2024)
Converted amounts (≈) assume the structure as drawn. “And” between values parts separate entries of the source, which are not always exact repeats. Equal values may be shown once. Read-outs that look alike come from different tables or passages of the source. Values belong to the molecule of their own block, whether it stands above or below them.

Tests used:
[1] = parameters: method as in doi:10.1016/j.afres.2023.100381; details: ABSs of [Ch]Cl and different surfactants, rice husk hydrolysate; cited from earlier work
[2] = Partition of polyphenols in cholinium salt/IL + PPG400 + water aqueous biphasic systems; type: physicochemical; details: for increase in RE by increasing the TLL: TLL 56.88 to 101.43, polyphenol content 2.5 g per L of ABS, pH~6, 25 °C
Experimental: Considering previously established phase diagrams of ABSs, ternary mixtures within the biphasic region were prepared, containing 20 wt% salt/IL + 50 wt% PPG400 + 30 wt% of H2O +10 μL of polyphenol solution. The polyphenol solutions were prepared in 80 vol% ethanol, with concentrations of circa 2500 mg L^−1 for each compound. […] The selected compositions of ABSs and corresponding TLLs are given in the Supplementary Materials.
Each ABS was prepared in 1.5 mL microcentrifuge tubes by adding the appropriate amount of constituents to achieve a final weight of 1 g. All systems were vigorously agitated (Reax Top, Heidolph, Schwabach, Germany) and left for 2 h at 25 °C in a thermo-shaker incubator (ALEMADR-MSC, Colo Lab Experts, Novo Mesto, Slovenia). Following 5 min of centrifugation at 5000× g rpm (LLG-uniCFUGE 5, Meckenheim, Germany), the phases were carefully separated, and their weights and volumes were measured. After appropriate dilution and filtration using syringe filters (0.45 μm), the contents of polyphenols in the phases were quantified by high-performance liquid chromatography (HPLC), as described in Section 2.5.
The logarithmic distribution coefficients (logD) of the polyphenols were calculated as the ratio of the equilibrium concentration of each polyphenol in the PPG400-rich and IL/salt-rich phases, as follows:(1) logD=log [Polyphenol]PPG400-phase/[Polyphenol]IL/salt-phase.
The selectivities (S) with respect to gallic acid were calculated according to the following equation:(4) SGA/Polyphenol=DGA/DPolyphenol where the subscript “Polyphenol” stands for resveratrol or quercetin.
The quantification of polyphenols was carried out using HPLC (Knauer, Berlin, Germany), which includes a DAD detector and an Ascentis C18 (SUPELCO), Darmstadt, Germany, column with a particle size of 5 µm and dimensions 250 mm × 4.6 mm. Chromatographic separation of the target polyphenols occurred at a constant flow rate of 1 mL min^−1, the injection volume for all samples was 20 μL, and the temperature of the column was fixed at 45 °C, with 10% acetonitrile (v/v) as mobile phase A and pure acetonitrile as mobile phase B. For partition studies, isocratic conditions were used for the determination of each compound (A:B = 60:40). Quantification in a complex sample after extraction from the real sample was achieved using a gradient mode, varying the mobile phase from 100% A to 100% B for 30 min.

[3] = Solubility determination (UV spectroscopy of saturated solutions); type: physicochemical; details: thermodynamic from solid
Experimental: Quantification was carried out using calibration curves (R^2 > 0.99 in all cases) for each analyzed compound within the concentration range of 2.5 to 50 mg L^-1.

[4] = cited from earlier work
[5] = parameters: method as in doi:10.2478/s11696-013-0417-6, doi:10.1016/0016-7037(88)90089-0; details: cited from earlier work
[6] = Recovery of polyphenols from grape stem extract with [Ch][DHP]/PPG400 ABS; type: physicochemical; details: 40 wt% PPG400 + 25 wt% [Ch][DHP], 25 °C, pH ~6, TLL ~101, ~5 mg extract per g ABS
Experimental: Grapes collected from Quinta das Carvalhas, Pinhao (Regiao Demarcada do Douro, Portugal), were first separated into stems, seeds, and skins. All samples were freeze-dried, ground into powder, and stored in a desiccator. Two grams of the grape stem powder was mixed with 100 mL of a water:ethanol mixture (1:1, v:v), followed by stirring for 2 h and sonication for 5 min. The sample was centrifuged at 10,000× g rpm for 15 min, and the pellet was re-extracted. The supernatant was collected, and the solvent was evaporated under vacuum using a rotary evaporator at 40 °C. […]
The quantification of polyphenols was carried out using HPLC (Knauer, Berlin, Germany), which includes a DAD detector and an Ascentis C18 (SUPELCO), Darmstadt, Germany, column with a particle size of 5 µm and dimensions 250 mm × 4.6 mm. […] Quantification in a complex sample after extraction from the real sample was achieved using a gradient mode, varying the mobile phase from 100% A to 100% B for 30 min.
Guided by the results from the optimization studies, polyphenols were extracted from grape stem extract with specific conditions in mind based on previously determined extraction parameters. […] The RE for GA towards the [Ch][DHP] phase was 78.64%, and quercetin was not detected in the grape stem extract. […]

[7] = [Ch][DHP]/PPG400 ABS, tie line ~101, lowest phase volume ratio (0.20), 25 °C

Structure (SMILES): COc1cc(/C=C/C(=O)O)ccc1O [ferulic acid]
yield in the surfactant-rich phase [1]: over 90%

increase in RE by increasing the TLL ([2]; [Ch][DHP]/PPG400 ABS): circa 7% | solubility at 12 h ([3]; PPG400/water 80:20 (v/v), aqueous with cosolvent or surfactant or cyclodextrin, PPG400/water 80:20, 25 °C, not the maximum solubility, read-out: solubility in PPG/water system matching the PPG phase): ≥ 100 mg/mL
Structure (SMILES): Oc1ccc(/C=C/c2cc(O)cc(O)c2)cc1 [RSV, trans-resveratrol]
solubility in pure water [4]: 0.039 mg/mL (≈ 0.171 mM)

Structure (SMILES): O=C(O)c1cc(O)c(O)c(O)c1 [GA, gallic acid]
recovery efficiency (RE) toward the IL-rich phase ([2]; [Ch][DHP]-based ABS, 20 wt% IL + 50 wt% PPG400, TLL 101.43, volume ratio 0.50, 25 °C): 92.31 ± 2.31% and 90% | increase in RE by increasing the TLL ([2]; [Ch][DHP]/PPG400 ABS): ~2% | recovery efficiency (RE) toward the IL-rich phase [2, 7]: 88.7 ± 3.91% | degradation ([5]; at 100 °C): 30% | temperature from which degradation begins [5]: 60 °C | recovery efficiency from grape stem extract towards the [Ch][DHP] phase [6]: 78.64% | recovery efficiency from grape stem extract towards the [Ch][DHP] phase ([6]; listed as gallic acid): 78% | solubility at 12 h ([3]; [Ch][DHP]/water 50:50, aqueous with cosolvent or surfactant or cyclodextrin, around 50 wt% [Ch][DHP] in water, 25 °C, read-out: maximal solubility in the [Ch][DHP]-rich phase): 140 mg/mL (≈ 822 mM) | solubility in water ([4]; no reference and method not given): 14.38 mg/mL (≈ 84.5 mM)

Structure (SMILES): O=c1c(O)c(-c2ccc(O)c(O)c2)oc2cc(O)cc(O)c12 [QC, quercetin]
selectivity SGA/QC (DGA/DQC) ([2]; [Ch][DHP]-based ABS, 25 °C): > 1000 | increase in RE by increasing the TLL ([2]; [Ch][DHP]/PPG400 ABS): ~9% | recovery efficiency (RE) toward the PPG-rich phase [2, 7]: 55.70 ± 2.13%

Structure (SMILES): O=C(O)/C=C/c1ccc(O)cc1 [p-coumaric acid]
yield in the surfactant-rich phase [1]: over 90%
